Assay results taken from patent publication US12528773B2, “Non-lysosomal glucosylceramidase inhibitors and uses thereof” (ALECTOS THERAPEUTICS INC., priority 2020, dated 2026).
pIC50: −log10 of the molar value.

Columns and labels:
Type in all cases: biochemical
[1] = target: T1, GBA2 (Homo sapiens (Human), UniProt Q9HCG7); assay: Inhibition of GBA2 in cell lysate (4-methylumbelliferone glucopyranoside substrate); conditions: HEK293T-overexpressing GBA2 cellular homogenate, pH 5.5; read-out: GBA2 IC50;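 note: homogenate of stably transfected HEK293T cells pre-treated with a GCase inhibitor, test compound preincubated 5 min at 37 °C, substrate reaction 20 min at 37 °C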
T1 sequence (Q9HCG7 whole entry): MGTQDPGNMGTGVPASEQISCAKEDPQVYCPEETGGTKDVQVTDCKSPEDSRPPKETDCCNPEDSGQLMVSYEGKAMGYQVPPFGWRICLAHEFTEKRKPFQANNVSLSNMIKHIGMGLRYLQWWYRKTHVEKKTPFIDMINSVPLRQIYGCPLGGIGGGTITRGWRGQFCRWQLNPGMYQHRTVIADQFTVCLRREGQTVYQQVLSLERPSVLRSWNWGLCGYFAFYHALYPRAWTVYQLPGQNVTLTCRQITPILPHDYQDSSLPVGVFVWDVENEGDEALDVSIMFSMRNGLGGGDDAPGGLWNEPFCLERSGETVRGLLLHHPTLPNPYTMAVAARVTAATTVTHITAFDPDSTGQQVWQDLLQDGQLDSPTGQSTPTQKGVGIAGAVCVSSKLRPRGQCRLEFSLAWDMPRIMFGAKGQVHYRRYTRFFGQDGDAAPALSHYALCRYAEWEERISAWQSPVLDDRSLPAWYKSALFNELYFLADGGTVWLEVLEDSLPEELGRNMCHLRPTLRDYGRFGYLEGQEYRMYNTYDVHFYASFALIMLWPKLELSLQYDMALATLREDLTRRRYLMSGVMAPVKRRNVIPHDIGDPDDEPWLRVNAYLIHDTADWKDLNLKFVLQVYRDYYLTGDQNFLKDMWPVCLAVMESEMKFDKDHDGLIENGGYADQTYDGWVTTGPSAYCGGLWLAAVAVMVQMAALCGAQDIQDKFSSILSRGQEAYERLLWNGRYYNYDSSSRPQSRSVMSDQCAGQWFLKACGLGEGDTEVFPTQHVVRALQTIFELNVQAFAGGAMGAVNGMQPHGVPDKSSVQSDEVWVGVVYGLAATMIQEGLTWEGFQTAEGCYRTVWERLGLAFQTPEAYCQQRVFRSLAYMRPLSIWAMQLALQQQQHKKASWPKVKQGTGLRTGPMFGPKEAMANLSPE

[2] = tested on: rat intestinal alpha-glucosidases; assay: Inhibition of rat intestinal alpha-glucosidases (rat intestinal lysate, glucose detection); conditions: compound concentration 25 μM, sucrose as substrate
How it was run: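 Rat intestinal acetone-powder lysate in citrate-phosphate pH 6.0 with 50 or 25 μM compound, 3.3% DMSO, 37 °C, 20 min. Sucrose reactions used 2.1 mg/mL lysate and 40 mM sucrose; maltose reactions 0.69 mg/mL lysate and 10 mM maltose. Glucose was detected by Amplex Red fluorescence at 10 min, or by hexokinase absorbance at 340 nm, relative to no-compound wells.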

[3] = target: T1, GBA2; assay: Binding specificity for GBA2 over other molecules, Ki or IC50 ratio
Excerpt: In some embodiments, one or more of the compounds according to the invention may specifically bind a GBA2. In alternative embodiments, one or more of the compounds according to the invention may specifically bind the active site of a GBA2. […] In alternative embodiments, one or more of the compounds according to the invention may specifically bind the human non-lysosomal glucosylceramidase (GBA2) over the human lysosomal glucosylceramidase (GCase) and/or the human cytosolic glucosylceramidase (GBA3). In alternative embodiments, one or more of the compounds according to the invention may specifically bind the human non-lysosomal glucosylceramidase (GBA2) over the human glucosylceramide synthase (GCS). In alternative embodiments, one or more of the compounds according to the invention may specifically bind the human non-lysosomal glucosylceramidase (GBA2) over an intestinal alpha-glucosidase, where the intestinal alpha-glucosidase may be a sucrase-isomaltase or a maltase-glucoamylase.

SMILES	pIC50 [1]	rat α-glu. (% inhib.) [2] [%]	binding specificity, IC50(other molecule)/IC50(GBA2) or Ki ratio [3]
O[C@H]1[C@H](O)CN(C[C@H]2CCN(c3nc(C(F)(F)F)cs3)C2)C[C@@H]1O [Example 21, (3S,4R,5R)-1-(((R)-1-(4-(trifluoromethyl)thiazol-2-yl)pyrrolidin-3-yl)methyl)piperidine-3,4,5-triol]	> 7.00	6	enhanced binding specificity
O[C@H]1[C@H](O)CN(C[C@H]2CCCN(c3ncccc3C(F)(F)F)C2)C[C@@H]1O [Example 29, (3S,4R,5R)-1-(((R)-1-(3-(trifluoromethyl)pyridin-2-yl)piperidin-3-yl)methyl)piperidine-3,4,5-triol]	> 7.00	4	enhanced binding specificity
O[C@H]1[C@H](O)CN(C[C@H]2CCCN(c3cccc(C(F)(F)F)n3)C2)C[C@@H]1O [Example 30, (3S,4R,5R)-1-(((R)-1-(6-(trifluoromethyl)pyridin-2-yl)piperidin-3-yl)methyl)piperidine-3,4,5-triol]	> 7.00	6	enhanced binding specificity
O[C@H]1[C@H](O)CN(C[C@H]2CCCN(c3cccnc3C(F)(F)F)C2)C[C@@H]1O [Example 31, (3S,4R,5R)-1-(((R)-1-(2-(trifluoromethyl)pyridin-3-yl)piperidin-3-yl)methyl)piperidine-3,4,5-triol]	> 7.00	0	enhanced binding specificity
O[C@H]1[C@H](O)CN(C[C@H]2CCCN(c3nc4ccccc4s3)C2)C[C@@H]1O [Example 34, (3S,4R,5R)-1-(((R)-1-(benzo[d]thiazol-2-yl)piperidin-3-yl)methyl)piperidine-3,4,5-triol]	> 7.00	2	enhanced binding specificity
O[C@H]1[C@H](O)CN(C[C@H]2CCCN(c3cccc4scnc34)C2)C[C@@H]1O [Example 35, (3S,4R,5R)-1-(((R)-1-(benzo[d]thiazol-4-yl)piperidin-3-yl)methyl)piperidine-3,4,5-triol]	> 7.00	7	enhanced binding specificity
O[C@H]1[C@H](O)CN(C[C@@H]2CCCN(c3ncccc3C(F)(F)F)C2)C[C@@H]1O [Example 36, (3S,4S,5R)-1-(((S)-1-(3-(trifluoromethyl)pyridin-2-yl)piperidin-3-yl)methyl)piperidine-3,4,5-triol]	> 7.00	0	enhanced binding specificity
O[C@H]1[C@H](O)CN(C[C@@H]2CCCN(c3cnccc3C(F)(F)F)C2)C[C@@H]1O [Example 38, (3S,4S,5R)-1-(((S)-1-(4-(trifluoromethyl)pyridin-3-yl)piperidin-3-yl)methyl)piperidine-3,4,5-triol]	> 7.00	0	enhanced binding specificity
